A melting point compilation (Tetko et al.; mined from patent text by program, amines drawn as free bases though some values may be those of a salt)

| SMILES | melting point |
| --- | --- |
| N#Cc1ccccc1C(Cc1ccc(C(F)(F)F)cc1)Cn1cncn1 (configuration not stated) | 123 °C |
| COc1ccc(/C=C/CN2CCN(C3c4ccccc4CCc4ncccc43)CC2)cc1[N+](=O)[O-] (configuration not stated) | 159 to 161 °C |
| Oc1ccc(-c2cc(F)c3cc(O)ccc3c2)cc1 | 236 to 238 °C |
| O=[N+]([O-])c1ccc(OCc2ccccc2)c(CO)c1 | 81 to 83 °C |
| CC(C)(O)Cn1cnc2c(N)nc3ccccc3c21 | 270 to 272 °C |
| O=C(O)c1c2c(nc3ccc(F)cc13)-c1ccc(-c3ccccc3C(F)(F)F)cc1CCC2 | > 300 °C |
| N#Cc1ccc2c(c1)CCC(CO)O2 (configuration not stated) | 85 °C |
| Fc1cccc(F)c1C1=N[C@@H](c2ccc(-c3ccc(S)cc3)cc2)CO1 | 133 to 135 °C |
| O=[N+]([O-])c1ccc(OC2CCCC2)cc1NC1CCCCC1 | 98 °C |
| COC(=O)[C@H](Cc1cc(Cl)c(OCc2cccc3cc(-c4ccccc4)oc23)c(Cl)c1)NC(=O)C(F)(F)F | 141 to 145 °C |
| CC1=CCC(=C2C(=O)C3(CS(=O)(=O)O)CCC2C3(C)C)C=C1 (configuration not stated) | 220 °C |
| C1=NCC2Cc3ccccc3Cc3cccc1c32 (configuration not stated) | 91 to 93 °C |
| COc1ccc(Cc2c(C(=O)O)n(CC3CC3)c3ccccc23)cc1 | 162 to 163 °C |
| CNC(=S)n1nc(N)nc1N | 176 to 178 °C |
| COc1cccc2c1nc(C(F)F)n2-c1nc(N2CCOCC2)c2ncn(-c3cccnc3)c2n1 | 229 to 231 °C |
| O=C(NC1N=C(c2ccccc2F)c2ccccc2NC1=S)c1ccc(Cl)cc1 (configuration not stated) | 156 to 158 °C |
| NC(=O)c1cc(Oc2ccc(Cl)c(Cl)c2)cnc1O | 246 to 249 °C |
| Cc1ccc(F)cc1C=S | 45 to 47 °C |
| CN(C)Cc1c[nH]c2ccc(OCc3ccccc3)c(Cl)c12 | 137 to 139 °C |
| CN1C(=O)C2(CCN(CCCC(O)c3ccc(F)cc3)CC2)c2ccccc21 (configuration not stated) | 126 to 128 °C |
| COc1ccc(-c2cnc(NS(=O)(=O)c3ccc(C)cc3)nc2)cc1 | 220 to 223 °C |
| COC(=O)CCCc1cc2nc(Cl)ccc2n1S(=O)(=O)c1cc(OC)ccc1OC | 102 °C |
| O=[N+]([O-])c1ccc(F)c(Br)c1 | 59 °C |
| O=[N+]([O-])c1c(Br)nn(Cc2ccccc2)c1NCc1ccccc1 | 103 °C |
| N[C@@H](Cc1cccc(C(F)(F)F)c1)[C@H](O)c1ccc(F)cc1 (racemic) | 76 to 77 °C |
| O=C(O)CCC(=O)c1ccc(-c2ccc(Br)cc2)cc1 | 198 to 200 °C |
| C1=C(CCC2=Cc3ccccc32)c2ccccc21 | 86 to 87 °C |

Second part, the compound after the results:

| melting point | SMILES |
| --- | --- |
| 73.3 °C | COc1cc(OCC2CCCO2)ccc1C=O (configuration not stated) |
| 198 to 201 °C | CCn1c(=O)c2[nH]c(C(C)C)nc2n(Cc2ccc(OC)c(OC)c2)c1=O |
| 122 to 123 °C | N#Cc1cc(Br)c(OC(=O)OCOC(=O)c2ccc(Oc3ccc(C(F)(F)F)cc3Cl)cc2[N+](=O)[O-])c(Br)c1 |
| 105 to 108 °C | CC(C)CCOc1ccc(OCn2cnc(Cl)c2Cl)cc1 |
| 134 to 136 °C | COc1ccc2ccc(C(N)=O)c(OC)c2c1 |
| 153 to 155 °C | Cc1oc(-c2ccc(F)cc2)nc1CO |
| 70.5 to 71.5 °C | CC(C)S(=O)(=O)c1cccc(OS(C)(=O)=O)n1 |
| 179 °C | COc1cc(Nc2nccc(-c3ccc(Br)cc3)n2)cc(OC)c1OC |
| 147 to 149 °C | CC(=O)Nc1ccccc1CS(=O)c1nccn1-c1ccncc1 (configuration not stated) |
| 65 to 66 °C | CCCCCCCCCCCCCC(=O)OCC1(CO)CCC(=O)O1 (configuration not stated) |
| > 320 °C | CC(C)=CCn1c(=S)sc2c(=O)[nH]c(N)nc21 |
| 139 to 141 °C | CCOC(=O)C(=O)Nc1c([N+](=O)[O-])sc2cc(Cl)ccc12 |
| 160 °C | COc1ccc(C(=O)Nc2ccc3ccc(Oc4ccccc4)nc3n2)cc1 |
| 94 to 96 °C | CC1CCOCC1C(C#N)=NO (configuration not stated) |
| > 300 °C | Cn1cc(S(=O)(=O)Cl)c(=O)c2ccc(Cl)cc21 |
